Results: ChEMBL document CHEMBL5625201, “Discovery and structure-activity relationship studies of novel α-ketoamide derivatives targeting the SARS-CoV-2 main protease” (Eur J Med Chem, 2023)

What was measured:
[1] = molecular target: T1, Replicase polyprotein 1ab (Severe acute respiratory syndrome coronavirus 2, UniProt P0DTD1); test: Inhibition of SARS-CoV-2 main protease by FRET assay
Cytochrome P450 3A4 = Cytochrome P450 3A4 (Homo sapiens, UniProt P08684); test: Inhibition of CYP3A4 (unknown origin); assay type: ADME
Sequence of Cytochrome P450 3A4 (P08684 whole entry): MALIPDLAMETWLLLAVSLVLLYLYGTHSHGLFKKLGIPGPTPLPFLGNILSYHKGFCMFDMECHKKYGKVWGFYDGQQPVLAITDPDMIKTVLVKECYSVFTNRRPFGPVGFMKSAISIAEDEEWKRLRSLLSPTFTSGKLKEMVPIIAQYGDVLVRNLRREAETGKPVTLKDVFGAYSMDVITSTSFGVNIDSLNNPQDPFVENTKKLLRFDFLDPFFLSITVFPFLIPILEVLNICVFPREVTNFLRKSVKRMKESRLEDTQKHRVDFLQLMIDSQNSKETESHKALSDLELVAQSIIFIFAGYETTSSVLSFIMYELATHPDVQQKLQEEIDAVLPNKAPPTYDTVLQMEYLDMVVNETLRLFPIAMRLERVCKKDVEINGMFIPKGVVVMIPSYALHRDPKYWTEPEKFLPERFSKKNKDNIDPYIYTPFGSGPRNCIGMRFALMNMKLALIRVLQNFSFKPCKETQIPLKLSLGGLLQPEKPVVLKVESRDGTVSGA

Cytochrome P450 2C9 = Cytochrome P450 2C9 (Homo sapiens, UniProt P11712); test: Inhibition of CYP2C9 (unknown origin); assay type: ADME
Sequence of Cytochrome P450 2C9 (P11712 whole entry): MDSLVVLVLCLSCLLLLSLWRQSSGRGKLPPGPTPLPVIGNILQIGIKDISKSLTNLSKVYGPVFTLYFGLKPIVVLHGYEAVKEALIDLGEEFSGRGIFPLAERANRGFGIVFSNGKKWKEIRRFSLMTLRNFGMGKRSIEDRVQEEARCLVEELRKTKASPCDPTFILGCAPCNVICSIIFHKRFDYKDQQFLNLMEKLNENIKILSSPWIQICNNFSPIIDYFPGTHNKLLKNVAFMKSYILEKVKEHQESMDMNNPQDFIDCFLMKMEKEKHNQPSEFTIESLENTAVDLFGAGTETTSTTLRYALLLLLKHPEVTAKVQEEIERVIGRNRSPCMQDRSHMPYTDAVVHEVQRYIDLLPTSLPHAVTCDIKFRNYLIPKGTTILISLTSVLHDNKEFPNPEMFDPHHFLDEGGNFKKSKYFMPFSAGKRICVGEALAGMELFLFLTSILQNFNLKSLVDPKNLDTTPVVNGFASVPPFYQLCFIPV

SARS-CoV-2 [2] = test: Antiviral activity against SARS-CoV-2 infected in human HPAEpiC cells assessed as reduction in viral replication by RT-qPCR assay; assay type: functional, organism-based; conditions: Severe acute respiratory syndrome coronavirus 2, HPAEpiC
[3] = Cytotoxicity against African green monkey Vero cells; assay type: toxicity, cell-based; conditions: chlorocebus sabaeus
[4] = Cytotoxicity against human BEAS-2B cells; assay type: toxicity, cell-based
[5] = molecular target: T1, Replicase polyprotein 1ab; test: Inhibition of SARS-CoV-2 Main protease using MCA-AVLQSGFR-Lys(DNP)-Lys-NH2 as substrate preincubated for 10 mins followed by substrate addition by FRET assay
SARS-CoV-2 [6] = test: Antiviral activity against SARS CoV-2 infected in African green monkey VeroE6/TMPRSS2 assessed as reduction in plaque formation measured after 2 days by crystal violet staining based assay; assay type: functional, organism-based; conditions: Severe acute respiratory syndrome coronavirus 2, VeroE6/TMPRSS2, 48 h

For `O=C(COc1ccccc1)N[C@H](Cc1ccccc1)C(=O)C(=O)NCc1ccccn1`, the IC50 [1] was 55.5 nM, the “inhibition (INH)” value (Cytochrome P450 3A4) was “Active” and the “inhibition (INH)” value (Cytochrome P450 2C9) was “Active”.
For `O=C(NCc1ccccn1)C(=O)[C@@H](Cc1ccccc1)NC(=O)[C@H]1COCCN1C(=O)[C@@H]1C[C@@H]2[C@H](C1)C2(F)F`, the IC50 [1] was 23.6 nM.
`O=C(Cc1ccccc1)N[C@H](Cc1ccccc1)C(=O)C(=O)NCc1ccccn1` showed an IC50 [1] of 219 nM.
Work on `CCC(CC)COC(=O)[C@H](C)N[P@](=O)(OC[C@H]1O[C@@](C#N)(c2ccc3c(N)ncnn23)[C@H](O)[C@@H]1O)Oc1ccccc1` yielded an EC50 (SARS-CoV-2 [2]) of 364 nM.
In the case of `C[C@@H](NC(=O)C1CCC(F)(F)CC1)C(=O)N[C@H](Cc1ccccc1)C(=O)C(=O)NCc1ccccn1`, the EC50 (SARS-CoV-2 [2]) is reported as 65.3 nM, the CC50 [3] is reported as greater than 100000 nM and the CC50 [4] is reported as greater than 100000 nM.
Compound `O=C(NCc1ccccn1)C(=O)[C@@H](Cc1ccccc1)NC(=O)[C@H]1CC(F)(F)CN1C(=O)CC1CCC(F)(F)CC1` has an IC50 [1] of 35 nM.
For `O=C(NCc1ccccn1)C(=O)[C@@H](Cc1ccccc1)NC(=O)c1ccccc1`, the IC50 [1] was 208 nM.
In the case of `O=C(CNC(=O)c1ccccc1)N[C@H](Cc1ccccc1)C(=O)C(=O)NCc1ccccn1`, the IC50 [1] is reported as 141 nM, the “inhibition (INH)” value (Cytochrome P450 3A4) is reported as “Active” and the “inhibition (INH)” value (Cytochrome P450 2C9) is reported as “Active”.
Compound `[2H][C@](C(=O)N[C@@H](C)c1ccc(F)cc1)(c1ccccc1)N(C(=O)C(C)=O)c1ccc2c(c1)oc1ccccc12` has an IC50 [5] of 8 nM and an EC50 (SARS-CoV-2 [6]) of 11 nM.
Compound `COC[C@@H](NC(=O)C1CCC(F)(F)CC1)C(=O)N[C@H](Cc1ccccc1)C(=O)C(=O)NCc1ccccn1` has an IC50 [1] of 17 nM, an EC50 (SARS-CoV-2 [2]) of 59.5 nM and a CC50 [3] greater than 100000 nM. It also gave a CC50 [4] greater than 100000 nM.
In the case of `O=C(CNC(=O)c1ccc(Cl)c(F)c1)N[C@H](Cc1ccccc1)C(=O)C(=O)NCc1ccccn1`, the IC50 [1] is reported as 18.5 nM.
`O=C(CNC(=O)[C@@H]1C[C@@H]2[C@H](C1)C2(F)F)N[C@H](Cc1ccccc1)C(=O)C(=O)NCc1ccccn1` gave an IC50 [1] of 17.9 nM.
Work on `CN(CC(=O)N[C@H](Cc1ccccc1)C(=O)C(=O)NCc1ccccn1)C(=O)C1CCC(F)(F)CC1` yielded an IC50 [1] of 30.6 nM.
With `C[C@@H](NC(=O)CC1CCC(F)(F)CC1)C(=O)N[C@H](Cc1ccccc1)C(=O)C(=O)NCc1ccccn1` the IC50 [1] was 16.1 nM.
For `O=C(CCc1ccccc1)N[C@H](Cc1ccccc1)C(=O)C(=O)NCc1ccccn1`, the IC50 [1] was 86.7 nM, the “inhibition (INH)” value (Cytochrome P450 3A4) was “Active” and the “inhibition (INH)” value (Cytochrome P450 2C9) was “Active”.
`O=C(NCc1ccccn1)C(=O)[C@@H](Cc1ccccc1)NC(=O)C1(NC(=O)C2CCC(F)(F)CC2)CC1` gave an IC50 [1] of 21.2 nM.
With `O=C(NCc1ccccn1)C(=O)[C@@H](Cc1ccccc1)NC(=O)[C@H]1CC(F)(F)CN1C(=O)[C@@H]1C[C@@H]2[C@H](C1)C2(F)F` the IC50 [1] was 37.2 nM.
For `CC(C)(C)[C@H](NC(=O)C(F)(F)F)C(=O)N1C[C@H]2[C@@H]([C@H]1C(=O)N[C@H](C#N)C[C@@H]1CCNC1=O)C2(C)C`, the EC50 (SARS-CoV-2 [2]) was 50 nM.
For `O=C(CNC(=O)C1CCC(F)(F)CC1)N[C@H](Cc1ccc(Cl)c(Cl)c1)C(=O)C(=O)NCc1ccccn1`, the IC50 [1] was 34.4 nM.
With `N#Cc1cc(C(=O)NCC(=O)N[C@H](Cc2ccccc2)C(=O)C(=O)NCc2ccccn2)ccc1F` the IC50 [1] was 168 nM.
For `CC[C@@H](NC(=O)C1CCC(F)(F)CC1)C(=O)N[C@H](Cc1ccccc1)C(=O)C(=O)NCc1ccccn1`, the IC50 [1] was 41.6 nM.
Work on `O=C(CC1CCC(F)(F)CC1)NCC(=O)N[C@H](Cc1ccccc1)C(=O)C(=O)NCc1ccccn1` yielded an IC50 [1] of 15 nM.
For `O=C(CNC(=O)C1CCC(F)(F)CC1)N[C@H](Cc1ccccc1)C(=O)C(=O)NCc1ccccn1`, the EC50 (SARS-CoV-2 [2]) was 102 nM, the CC50 [3] was greater than 100000 nM and the CC50 [4] was greater than 100000 nM.
Compound `O=C(NCc1ccccn1)C(=O)[C@@H](Cc1ccccc1)NC(=O)[C@H]1COCCN1C(=O)CC1CCC(F)(F)CC1` has an IC50 [1] of 10.9 nM, an EC50 (SARS-CoV-2 [2]) of 66.4 nM and a CC50 [3] greater than 100000 nM. For the same compound, the CC50 [4] was greater than 100000 nM.
In the case of `C[C@@H](NC(=O)[C@@H]1C[C@@H]2[C@H](C1)C2(F)F)C(=O)N[C@H](Cc1ccccc1)C(=O)C(=O)NCc1ccccn1`, the EC50 (SARS-CoV-2 [2]) is reported as 97.8 nM, the CC50 [3] is reported as greater than 100000 nM and the CC50 [4] is reported as greater than 100000 nM.
In the case of `O=C(CCCc1ccccc1)N[C@H](Cc1ccccc1)C(=O)C(=O)NCc1ccccn1`, the IC50 [1] is reported as 33.8 nM, the “inhibition (INH)” value (Cytochrome P450 3A4) is reported as “Active” and the “inhibition (INH)” value (Cytochrome P450 2C9) is reported as “Active”.
